Literature values in US20260335319A1, “INJECTABLE COMPOSITIONS OF METOLAZONE” (CIPLA LIMITED, priority 2023, published 2026).
Read-outs that look alike come from different tables or passages of the source.

Key:
[1] = relative to water

SMILES: Cc1ccccc1N1C(=O)c2cc(S(N)(=O)=O)c(Cl)cc2NC1C (centres unmarked) [Metolazone, 7-chloro-1,2,3,4-tetrahydro-2-methyl-3-(2-methylphenyl)-4-oxo-6-quinazolinesulfonamide]
- absorption (metolazone, general): variable absorption
- bioavailability (metolazone, general): poor bioavailability
- absorption (oral immediate release tablet): erratic absorption
- bioavailability (oral immediate release tablet): variable bioavailability
- solubility in alkali and organic solvents [1]: more soluble in alkali, and organic solvents
